The values that follow are results of earlier work, collected in patent publication US20110190376A1, “RNAi-RELATED INHIBITION OF TNFa SIGNALING PATHWAY FOR TREATMENT OF MACULAR EDEMA” (ALCON RESEARCH, LTD., priority 2007, published 2011).

Series [1] has as its system severe diabetic macular edema. The conditions noted are these: eyes that had severe diabetic macular edema.
For series [2], the system named is refractory chronic cystoid macular edema (CME).
The next series relates to macular edema. The conditions noted are these: patients also suffering from posterior uveitis.

Turning to infliximab, the “eyes with anatomic and functional improvement” value in series [1] was “four of six”. Further, in series [2], the “eyes with complete regression of refractory chronic cystoid macular edema” value was 8 of 14. In addition, the “resolution of macular edema” value with macular edema is “caused macular edema to resolve in two patients”.
